ChEMBL document CHEMBL1201862, “PubChem BioAssay data set” (2004)
“And” between values parts separate entries of the source, which are not always exact repeats. Identical values can stand only once.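 The compound was tested at five concentrations on cells cultured in 96-well plates, with a 48-hour exposure period. Abbreviation: GI50, concentration required for 50% inhibition of growth.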 The source made the active and inactive calls. Cut-off read from the data, not from the text of the source: active = GI50 up to about 1.1 µM and inactive = higher.

Key:
Test in all cases: growth of human tumour cells (NCI), 48 h
A498 = system: A498
BT-549 = system: BT-549
DU-145 = system: DU-145
HCT-116 = system: HCT-116
Hs-578T = system: Hs-578T
NCI-H226 = system: NCI-H226
NCI-H23 = system: NCI-H23
OVCAR-3 = system: OVCAR-3
PC-3 = system: PC-3
SF-268 = system: SF-268
SK-MEL-28 = system: SK-MEL-28
SN12C = system: SN12C
SNB-75 = system: SNB-75
SW-620 = system: SW-620
U-251 = system: U-251
ACHN = system: ACHN
MCF7 = system: MCF7
NCI-H460 = system: NCI-H460
UO-31 = system: UO-31
Malme-3M = system: Malme-3M

Row | SMILES | GI50 (A498) | GI50 (BT-549) | GI50 (DU-145) | GI50 (HCT-116) | GI50 (Hs-578T) | GI50 (NCI-H226) | GI50 (NCI-H23) | GI50 (OVCAR-3) | GI50 (PC-3) | GI50 (SF-268) | GI50 (SK-MEL-28) | GI50 (SN12C) | GI50 (SNB-75) | GI50 (SW-620) | GI50 (U-251) | GI50 (ACHN) | GI50 (MCF7) | GI50 (NCI-H460) | GI50 (UO-31) | GI50 (Malme-3M)
1 | COC(=O)[C@H](Cc1c[nH]c2ccccc12)NP(=O)(O)OCC1C=CC(n2cc(C)c(=O)[nH]c2=O)O1 (stereo partly drawn) | > 100 µM (inactive) | > 100 µM (inactive) | > 100 µM (inactive) | > 100 µM (inactive) | > 100 µM (inactive) | > 100 µM (inactive) | > 100 µM (inactive) | > 100 µM (inactive) | > 100 µM (inactive) | > 100 µM (inactive) | > 100 µM (inactive) | > 100 µM (inactive) | > 100 µM (inactive) | > 100 µM (inactive) | > 100 µM (inactive) | – | – | – | – | –
2 | COc1ccc(OC)c(Cc2cnc3nc(N)nc(N)c3c2C)c1 [PIRITREXIM ISETHIONATE] | – | 13.4 µM (inactive) | 0.284 µM (active) | < 0.0112 µM (active) | 15.1 µM (inactive) | 2.19 µM (inactive) | 0.0617 µM (active) | 0.533 µM (active) | 0.0353 µM (active) | 0.0957 µM (active) | 1.25 µM (inactive) | 0.352 µM (active) | 2.1 µM (inactive) | < 0.0231 µM (active) | – | < 0.01 µM (active) | 0.634 µM (active) | < 0.01 µM (active) | 0.24 µM (active) | –
3 | Cc1cc2c(cc1Cl)SC(NS(=O)(=O)c1ccc(Cl)cc1)=NS2(=O)=O | 30.4 µM (inactive) | 42.7 µM (inactive) | 83.9 µM (inactive) | 35.4 µM (inactive) | 41.5 µM (inactive) | 33.5 µM (inactive) | 30.5 µM (inactive) | 19.3 µM (inactive) | – | 85.9 µM (inactive) | > 100 µM (inactive) | > 100 µM (inactive) | 35.2 µM (inactive) | 41.6 µM (inactive) | > 100 µM (inactive) | > 100 µM (inactive) | 56.8 µM (inactive) | 79.8 µM (inactive) | > 100 µM (inactive) | –
4 | COC(=O)N1C2C(C[C@@]1(C)C(=O)OC)c1ccccc1N2S(=O)(=O)c1ccccc1 (stereo partly drawn) | – | > 100 µM (inactive) | > 100 µM (inactive) | > 100 µM (inactive) | > 100 µM (inactive) | > 100 µM (inactive) | > 100 µM (inactive) | > 100 µM (inactive) | > 100 µM (inactive) | > 100 µM (inactive) | > 100 µM (inactive) | – | > 100 µM (inactive) | > 100 µM (inactive) | – | > 100 µM (inactive) | > 100 µM (inactive) | > 100 µM (inactive) | > 100 µM (inactive) | > 100 µM (inactive)
5 | COC(=O)C1OC(O[C@H]2CC[C@]3(C)[C@H]4CC=C5[C@@H]6CC(C)(C)CC[C@]6(C(=O)OC6OCC(O)C(O)C6OC6OC(C)C(OC7OCC(O)C(O)C7O)C(O)C6O)CC[C@@]5(C)[C@]4(C)CC[C@H]3C2(C)C)C(O)C(O)C1O (stereo partly drawn) | – | 18.7 µM (inactive) and 19.9 µM (inactive) | 18 µM (inactive) and 22.1 µM (inactive) | 17.1 µM (inactive) and 18.4 µM (inactive) | 18.2 µM (inactive) and 20.6 µM (inactive) | 19.7 µM (inactive) and 20.8 µM (inactive) | 15.4 µM (inactive) and 15.8 µM (inactive) | 39.5 µM (inactive) and 42.8 µM (inactive) | 14.4 µM (inactive) and 15.8 µM (inactive) | 17.3 µM (inactive) and 19.6 µM (inactive) | 14.4 µM (inactive) and 16.6 µM (inactive) | 13.4 µM (inactive) and 16.4 µM (inactive) | 16.5 µM (inactive) and 16.1 µM (inactive) | 19.6 µM (inactive) and 21.9 µM (inactive) | 18.4 µM (inactive) and 18.7 µM (inactive) | – | 13.5 µM (inactive) and 13 µM (inactive) | 34.5 µM (inactive) and 20 µM (inactive) | 13.2 µM (inactive) and 18.9 µM (inactive) | 15.5 µM (inactive) and 18.4 µM (inactive)
6 | O=C(c1ccccc1)c1ccc2[nH]c(-c3c(Cl)c(Cl)c(Cl)c(Cl)c3C(=O)N/N=C/c3cccc(Oc4ccccc4)c3)nc2c1 | – | 93.8 µM (inactive) | > 100 µM (inactive) | 76.6 µM (inactive) | > 100 µM (inactive) | 84.1 µM (inactive) | 74.1 µM (inactive) | 75.7 µM (inactive) | 77.4 µM (inactive) | 76.7 µM (inactive) | > 100 µM (inactive) | > 100 µM (inactive) | 60.8 µM (inactive) | 56.1 µM (inactive) | 54.7 µM (inactive) | > 100 µM (inactive) | 42 µM (inactive) | – | > 100 µM (inactive) | > 100 µM (inactive)
7 | CC(C)(C)OC(=O)NC(CCC(=O)OCc1ccccc1)C(=O)NCCCO (stereo not drawn) | > 100 µM (inactive) | > 100 µM (inactive) | > 100 µM (inactive) | > 100 µM (inactive) | > 100 µM (inactive) | > 100 µM (inactive) | > 100 µM (inactive) | > 100 µM (inactive) | – | > 100 µM (inactive) | > 100 µM (inactive) | > 100 µM (inactive) | > 100 µM (inactive) | > 100 µM (inactive) | > 100 µM (inactive) | > 100 µM (inactive) | > 100 µM (inactive) | > 100 µM (inactive) | > 100 µM (inactive) | > 100 µM (inactive)
8 | O=C(C/N=C(\CN(c1ccccc1)c1ccccc1)Oc1c(Cl)cc(Cl)cc1Cl)n1cnc2ccccc21 | – | 22.6 µM (inactive) | > 100 µM (inactive) | 34 µM (inactive) | > 100 µM (inactive) | 19.5 µM (inactive) | > 100 µM (inactive) | 32.5 µM (inactive) | 27.5 µM (inactive) | > 100 µM (inactive) | > 100 µM (inactive) | 56.2 µM (inactive) | > 100 µM (inactive) | 81.7 µM (inactive) | 82.6 µM (inactive) | 78.2 µM (inactive) | 71 µM (inactive) | > 100 µM (inactive) | – | 52.6 µM (inactive)
9 | O=C(c1ccco1)N(Cc1ccco1)C(=S)Nc1ccccc1 | – | 17.2 µM (inactive) | 33.2 µM (inactive) | 6.37 µM (inactive) | 19.3 µM (inactive) | 66.8 µM (inactive) | 13.5 µM (inactive) | 15.7 µM (inactive) | 30.5 µM (inactive) | 20.2 µM (inactive) | 15 µM (inactive) | 14.5 µM (inactive) | 18.5 µM (inactive) | 12.4 µM (inactive) | 28.3 µM (inactive) | 19.5 µM (inactive) | 4.2 µM (inactive) | 49.1 µM (inactive) | 16.5 µM (inactive) | 14.7 µM (inactive)
10 | O=C(CC(=O)Nc1ccccc1)N/N=C/c1cc(/N=N/c2ccc(Br)cc2)ccc1O | – | > 10 µM (inactive) | 5.16 µM (inactive) | – | > 10 µM (inactive) | – | 2.6 µM (inactive) | – | – | 4.5 µM (inactive) | 4.41 µM (inactive) | 8.22 µM (inactive) | > 10 µM (inactive) | 4.84 µM (inactive) | 3.61 µM (inactive) | – | 2.99 µM (inactive) | 3.28 µM (inactive) | 2.42 µM (inactive) | 5.93 µM (inactive)
